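Following 48 hours of exposure in 96-well plates, responses at five concentrations were used to interpolate endpoints linearly. GI50 is the concentration that inhibits growth by half.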 Calls of active or inactive are those of the source. Rule as the data show it: active = GI50 up to about 1.1 µM and inactive = higher.
Experiments:
Assay in all cases: DTP human tumour cell line panel, 48 h
[1] = system: LXFL 529
[2] = system: RXF 631
[3] = system: XF498
[4] = system: DMS-114
[5] = system: M19-MEL
[6] = system: HOP-18
[7] = system: DMS-273

Row | SMILES | GI50 [1] | GI50 [2] | GI50 [3] | GI50 [4] | GI50 [5] | GI50 [6] | GI50 [7]
1 | Cc1cc(NS(=O)(=O)c2ccc(Nc3c4ccccc4nc4c(C(=O)NCCN(C)C)ccc(Cl)c34)cc2)no1 | 4.67 µM (inactive) | 0.851 µM (active) | 13.8 µM (inactive) | 0.867 µM (active) | 3.39 µM (inactive) |  | 
2 | CC[As](CC)SCC1OC(OC(C)=O)C(OC(C)=O)C(OC(C)=O)C1OC(C)=O (stereo not given) | 1.92 µM (inactive) | 2.67 µM (inactive) | 17.7 µM (inactive) | 4.81 µM (inactive) | 11.8 µM (inactive) | 16.1 µM (inactive) | 15.6 µM (inactive)
3 | O=C1CCCC/C1=C/C=C/c1ccccc1 | 64.9 µM (inactive) | 69.2 µM (inactive) | > 100 µM (inactive) |  | 50.9 µM (inactive) | > 100 µM (inactive) | 
4 | CCOC(=O)c1ccc(/N=C\c2ccc(N(CCC#N)CCC#N)cc2)cc1 | 20.8 µM (inactive) | > 100 µM (inactive) | > 100 µM (inactive) | 70 µM (inactive) | 62.8 µM (inactive) |  | 35.9 µM (inactive)
5 | Cc1nc(C(N)=S)sc1C(=O)/C=C/c1c(O)ccc2ccccc12 | 30 µM (inactive) | > 100 µM (inactive) | > 100 µM (inactive) | 32.5 µM (inactive) | 13.8 µM (inactive) | > 100 µM (inactive) | > 100 µM (inactive)
6 | CCCCCCCCCCNCCSSCc1ccc(Cl)cc1 | 1.56 µM (inactive) | 1.69 µM (inactive) | 2.8 µM (inactive) | 1.57 µM (inactive) | 1.22 µM (inactive) | > 10 µM (inactive) | 1.4 µM (inactive)
7 | CC1=C(/C(C)=N/NC(=O)c2ccccc2O)C(C)C(/C(C)=N/NC(=O)c2ccccc2O)=C(C)N1 | 23.3 µM (inactive) | 37.1 µM (inactive) | 15.1 µM (inactive) | 16.2 µM (inactive) | 18.7 µM (inactive) |  | 
8 | O=C1[C@H]2ON(c3ccccc3)C(c3ccccc3F)[C@H]2C(=O)N1c1ccc(Cc2ccc(N3C(=O)[C@@H]4ON(c5ccccc5)C(c5ccccc5F)[C@@H]4C3=O)cc2)cc1 (stereo not given in full) | > 100 µM (inactive) | > 100 µM (inactive) | > 100 µM (inactive) | > 100 µM (inactive) | > 100 µM (inactive) | > 100 µM (inactive) | 46.1 µM (inactive)
9 | CCOc1ccc(NC(=O)C(=O)CC(=O)C2=C(C)Nc3ccccc3S2)cc1 |  | > 50 µM (inactive) | > 50 µM (inactive) | > 50 µM (inactive) | > 50 µM (inactive) | > 50 µM (inactive) | 
10 | C#CC[N+](C)(CC#C)CC#C | > 100 µM (inactive) | > 100 µM (inactive) | > 100 µM (inactive) | > 100 µM (inactive) | > 100 µM (inactive) |  | > 100 µM (inactive)
11 | CC(C)(C)C(=O)N1C(C(=O)O)Cc2ccccc2[C@@H]1Cc1ccccc1 (stereo not given in full) | > 100 µM (inactive) | > 100 µM (inactive) | > 100 µM (inactive) | > 100 µM (inactive) | > 100 µM (inactive) | > 100 µM (inactive) | > 100 µM (inactive)
12 | Cn1c(=O)nc2n(-c3cccc(Cl)c3)c3ccccc3nc-2c1=O | 18.6 µM (inactive) | 13.5 µM (inactive) | 19.9 µM (inactive) | 6.34 µM (inactive) |  | 12.2 µM (inactive) | 9.55 µM (inactive)
13 | CCCCCCCCCCCCCCCCCCOCC(C[N+]1(C)CCC(O)CC1)OCC (stereo not given) | 2.84 µM (inactive) | 4.93 µM (inactive) | 13.3 µM (inactive) | 3.19 µM (inactive) | 3.52 µM (inactive) |  | 2.28 µM (inactive)
14 | Cc1cc(OC(=O)c2c(C)cc(OC(=O)c3c(C)cc(O)cc3O)cc2O)cc(O)c1C(=O)O [GYROPHORIC ACID] | > 100 µM (inactive) | > 100 µM (inactive) | > 100 µM (inactive) | > 100 µM (inactive) | > 100 µM (inactive) |  | > 100 µM (inactive)
